In article PMC6151726, “Design and Antiproliferative Evaluation of Novel Sulfanilamide Derivatives as Potential Tubulin Polymerization Inhibitors” (Molecules : A Journal of Synthetic Chemistry and Natural …, 2017):
≈ marks a conversion by molar mass, not a printed value. Where two headings read alike, the source gives them in different places.

Assays:
[1] = tested on: MGC-803 (human gastric cancer cell line); assay: MTT antiproliferative assay, MGC-803; format: cell-based; details: exposure for 48 h, means ± SDs of three independent experiments
Procedure: (§1) All synthesized sulfonamide-1,2,3-triazole hybrids were evaluated for their anticancer activity against three cancer cell lines: MGC-803 (human gastric cancer cell line), MCF-7 (human breast cancer cell line), and PC-3 (human prostate cancer cell line) using a MTT (4,5-dimethyl-2-thiazolyl)-2,5-diphenyl-2-H-tetrazolium bromide) assay. The well-known tubulin polymerization inhibitor CA-4P was used as a control. In [24], 5-fluorouracil (5-Fu) was selected as the control in the antiproliferative evaluation assay of 1,2,3-triazole derivatives. Therefore, 5-Fu was also used as the reference drug in this MTT assay.
(§2) MGC-803 cells (human gastric cancer), MCF-7 (human breast cancer), PC-3 (human prostate cancer) and GES-1 (human gastric epithelial cell) were cultured in RPMI 1640 medium with 10% FBS and 100 U/mL penicillin and 0.1 mg/mL streptomycin in the 37 °C in an atmosphere containing 5% CO2. All cell lines were purchased from the China Center for Type Culture Collection (CCTCC, Shanghai, China). For pharmacological investigations, 10 mM stock solutions of the tested compounds were prepared with dimethyl sulfoxide (DMSO). […] The MTT assay was prepared according to the previous method.

[2] = tested on: MCF-7 (human breast cancer cell line); assay: MTT antiproliferative assay, MCF-7; format: cell-based; details: MCF7, exposure for 48 h, means ± SDs of three independent experiments
Procedure: as §1, §2

[3] = tested on: PC-3 (human prostate cancer cell line); assay: MTT antiproliferative assay, PC-3; format: cell-based; details: exposure for 48 h, means ± SDs of three independent experiments
Procedure: as §1, §2

[4] = MTT assay on normal cells, GES-1; format: cell-based; details: GES-1 cells (normal gastric epithelial cell line), normal human gastric epithelial cell line, read-out: inhibitory effect / cytotoxicity against GES-1
Procedure: Compound 11f was further examined for possible inhibitory effects against GES-1 (normal human gastric epithelial cell line).
as §2

[5] = tested on: tubulin; assay: In vitro tubulin polymerization inhibition assay; format: biochemical; details: 5.6 mg/mL tubulin in PEM buffer, read-out: inhibitory concentration that reduced the polymerized tubulin by 50% (IC50)
Procedure: The inhibitory concentrations that reduced the polymerized tubulin by 50% of CA-4P was 2.40 μM [25]. To investigate whether the synthesized 1,2,3-triazole-sulfonamide hybrids target the tubulin-microtubule system, the in vitro tubulin polymerization inhibition activity of compound 11f was evaluated because of its best antiproliferative activity results among all the tested compounds in the initial cytotoxicity screening. When tubulin was incubated with the tested 1,2,3-triazole-sulfonamide 11f at the indicated concentrations, an increased fluorescence intensity was obvious.
Tubulin polymerization in vitro was assyed with 100 μL samples and monitored by absorbance at 350 nm (Filter A00019x) in 96-well plates with an Appliskan plate reader (Thermo Fisher Scientific, Waltham, MA, USA). An amount of 5.6 mg/mL tubulin was resuspended in PEM buffer (80 mM PIPES (pH 6.9), 1 mM EGTA, 0.5 mM MgCl2, […], 10.2% (v/v) glycerol) and then was preincubated with compound 11f or vehicle DMSO on ice. Data were exported using the Thermo Scientific SkanIt software of the Appliskan (version 2.3) and Excel software was used to generate plots. For convenience, data were normalized to the minimum absorbance value of the initial stable plateau. This tubulin polymerization inhibition assay was measured according to the method originally.

[6] = tested on: MGC-803, MCF-7 and PC-3 cells; assay: MTT antiproliferative assay, three cancer cell lines together; format: cell-based; details: Homo sapiens; range over MGC-803, MCF-7 and PC-3; read-out: IC50 values ranging over three cell lines
Procedure: as §1, §2

[7] = tested on: PC3 cells; design: method as in PMID 27423028; details: read-out: IC50 against PC3 cells; cited from earlier work
[8] = tested on: HCT116 human colon carcinoma; design: method as in PMID 10508428; details: cell proliferation assay; cited from earlier work
[9] = tested on: A2780AD cell line; design: method as in PMID 28640209; details: read-out: IC50 antiproliferative activity against A2780AD cell line; cited from earlier work
[10] = tested on: murine leukemia; design: method as in PMID 26501246; details: read-out: IC50 against the proliferation of murine leukemia; cited from earlier work
[11] = tested on: CDK2; design: method as in PMID 28005359; details: cited from earlier work
[12] = tested on: CDK1; design: method as in PMID 28005359; details: cited from earlier work
[13] = tested on: 4T1 mammary tumor cells; details: 45 mg/kg; cited from earlier work
[14] = tested on: tubulin; design: method as in PMID 24923521; details: read-out: IC50 inhibition of tubulin assembly; cited from earlier work

Row | IC50 [1] | IC50 [2] | IC50 ([3]; Homo sapiens, 48 h) | melting point | Molecule | other results
1 | 13.7 ± 2.9 µM | 15.7 ± 0.2 µM | 4.08 µM | 118 to 121 °C | Cc1ccc(S(=O)(=O)NCc2cn(Cc3cccc(Oc4ccccc4)c3)nn2)cc1 [11f, 4-Methyl-N-((1-(3-phenoxybenzyl)-1H-1,2,3-triazol-4-yl)methyl)benzenesulfonamide] | IC50 [3]: 4.1 ± 1.4 µM; IC50 [4]: > 64 µM; IC50 [5]: 2.41 µM; IC50 [6]: 4.1 to 15.7 µM
2 | 75.8 ± 0.6 µM | > 100 µM | > 100 µM | 145 to 148 °C | Cc1ccc(S(=O)(=O)NCc2cn(Cc3cccc(C)c3)nn2)cc1 [11k, 4-Methyl-N-((1-(3-methylbenzyl)-1H-1,2,3-triazol-4-yl)methyl)benzenesulfonamide] | –
3 | – | – | – | – | O=S1(=O)CCCN(S(=O)(=O)c2ccc(-c3cnc(C4CC4)o3)cc2)c2ccccc21 [BA-3P] | IC50 [7]: 5.88 µM
4 | 21.7 ± 0.1 µM | 39.6 ± 5 µM | 6.4 ± 1.2 µM | 127 to 130 °C | O=S(=O)(NCc1cn(Cc2cccc(Oc3ccccc3)c2)nn1)c1ccccc1 [11e, N-((1-(3-Phenoxybenzyl)-1H-1,2,3-triazol-4-yl)methyl)benzenesulfonamide] | –
5 | – | – | – | – | NS(=O)(=O)c1ccc(S(=O)(=O)Nc2cccc3c(Cl)c[nH]c23)cc1 [compound 4, N-(3-chloro-7-indolyl)-1,4-benzenedisulfonamide] | IC50 against HCT116 human colon carcinoma [8]: 0.11 µg/mL (≈ 0.285 µM)
6 | 88.8 ± 0.5 µM | 36.4 ± 2 µM | 34.1 ± 0.3 µM | 144 to 146 °C | O=c1ccc2cc(S(=O)(=O)NCc3cn(Cc4cccc(Oc5ccccc5)c4)nn3)ccc2o1 [11d, 2-Oxo-N-((1-(3-phenoxybenzyl)-1H-1,2,3-triazol-4-yl)methyl)-2H-chromene-6-sulfonamide] | IC50 [6]: 34.1 to 88.8 µM
7 | > 100 µM | > 100 µM | > 100 µM | – | C#CCNS(=O)(=O)c1ccc(C)cc1 [9f, 4-Methyl-N-(prop-2-yn-1-yl)benzenesulfonamide] | –
8 | – | – | – | – | Quinolin-6-yloxyacetamide | IC50 [9]: 0.262 µM
9 | – | – | – | – | Nc1nc(Cl)c2ncn(Cc3cn(C[C@H](OCc4ccccc4)[C@@H](O)P(=O)(OCc4ccccc4)OCc4ccccc4)nn3)c2n1 [compound 5] | IC50 [10]: 21 µM
10 | 15.3 ± 0.8 µM | 49.9 ± 1.2 µM | 19.8 ± 0.6 µM | 110 to 111 °C | O=S(=O)(NCc1cn(Cc2cccc(Oc3ccccc3)c2)nn1)c1ccc(Cl)s1 [11b, 5-Chloro-N-((1-(3-phenoxybenzyl)-1H-1,2,3-triazol-4-yl)methyl)thiophene-2-sulfonamide] | –
11 | 17 ± 1.8 µM | 78.5 ± 2.2 µM | 24.6 ± 0.9 µM | 104 to 106 °C | O=S(=O)(NCc1cn(Cc2cccc(Oc3ccccc3)c2)nn1)c1cccs1 [11a, N-((1-(3-Phenoxybenzyl)-1H-1,2,3-triazol-4-yl)methyl)thiophene-2-sulfonamide] | –
12 | 41.3 ± 2.3 µM | > 100 µM | > 100 µM | 145 to 147 °C | Cc1ccc(S(=O)(=O)NCc2cn(Cc3cccc(C#N)c3)nn2)cc1 [11j, N-((1-(3-Cyanobenzyl)-1H-1,2,3-triazol-4-yl)methyl)-4-methylbenzenesulfonamide] | –
13 | – | – | – | – | NS(=O)(=O)c1ccc(Nc2nc(-c3cccc(-c4ccccc4)c3)c3nc[nH]c3n2)cc1 [compound 3] | IC50 [11]: 0.044 µM; fold less active toward CDK1 than CDK2 ([12]; CDK1 vs CDK2): ~ 2000 fold; IC50 [12]: 86 µM
14 | 15.3 ± 0.5 µM | 77.5 ± 0.7 µM | 22.7 ± 0.5 µM | 97 to 99 °C | O=S(=O)(NCc1cn(Cc2cccc(Oc3ccccc3)c2)nn1)c1ccccc1Cl [11i, 2-Chloro-N-((1-(3-phenoxybenzyl)-1H-1,2,3-triazol-4-yl)methyl) benzenesulfonamide] | –
15 | 15.6 ± 0.4 µM | 21.2 ± 3.6 µM | 13.9 ± 1.5 µM | – | O=c1[nH]cc(F)c(=O)[nH]1 [5-Fu, 5-Fluorouracil, reference compound] | –
16 | 31 ± 2.2 µM | 34.7 ± 2.6 µM | 49.4 ± 1 µM | 111 to 112 °C | O=S(=O)(NCc1cn(Cc2cccc(Oc3ccccc3)c2)nn1)c1ccc(Br)s1 [11c, 5-Bromo-N-((1-(3-phenoxybenzyl)-1H-1,2,3-triazol-4-yl)methyl)thiophene-2-sulfonamide] | –
17 | > 100 µM | > 100 µM | > 100 µM | 193 to 196 °C | C#CCNS(=O)(=O)c1ccc2oc(=O)ccc2c1 [9d, 2-Oxo-N-(prop-2-yn-1-yl)-2H-chromene-6-sulfonamide] | –
18 | – | – | – | – | NS(=O)(=O)c1ccc(NC(=O)Nc2cccc([N+](=O)[O-])c2)cc1 [compound 1] | formation of metastases by 4T1 mammary tumor cells [13]: significantly inhibited the formation of metastases
19 | 18.4 ± 0.7 µM | 24.6 ± 1.6 µM | 24.7 ± 3 µM | 111 to 113 °C | Cc1cc(C)c(S(=O)(=O)NCc2cn(Cc3cccc(Oc4ccccc4)c3)nn2)c(C)c1 [11h, 2,4,6-Trimethyl-N-((1-(3-phenoxybenzyl)-1H-1,2,3-triazol-4-yl)methyl)benzenesulfonamide] | –
20 | > 100 µM | > 100 µM | > 100 µM | – | C#CCNS(=O)(=O)c1cccs1 [9a, N-(Prop-2-yn-1-yl)thiophene-2-sulfonamide] | –
21 | > 100 µM | 54.9 ± 1.7 µM | 7.1 ± 0.5 µM | 137 to 139 °C | CC(C)(C)c1ccc(S(=O)(=O)NCc2cn(Cc3cccc(Oc4ccccc4)c3)nn2)cc1 [11g, 4-(Tert-butyl)-N-((1-(3-phenoxybenzyl)-1H-1,2,3-triazol-4-yl)methyl)benzenesulfonamide] | –
22 | – | – | – | – | COc1cc2c(cc1O)CC[C@@H]1[C@@H]2CC[C@@]2(C)[C@H]1CC[C@@]2(O)c1cn(-c2ccc(OC(F)(F)F)cc2)nn1 [compound 7] | IC50 [14]: 5.9 µM
23 | 77.2 ± 7.8 µM | > 100 µM | > 100 µM | 112 to 114 °C | COc1cccc(Cn2cc(CNS(=O)(=O)c3ccc(C)cc3)nn2)c1 [11l, N-((1-(3-Methoxybenzyl)-1H-1,2,3-triazol-4-yl)methyl)-4-methylbenzenesulfonamide] | –
